PubChem BioAssay (NCI)
Where “and” joins values, the source holds several entries; their conditions need not be identical. Equal entries are not always repeated.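 Compound exposure: 48 hours, 5 concentrations, 96-well plates. The concentration for 50% growth inhibition is given as GI50. Definition used: TGI = concentration required for complete inhibition of growth.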

Tests used:
Experiment in all cases: DTP human tumour cell line panel, 48 h
[1] = test system: CCRF-CEM leukemia
[2] = test system: UO-31 renal
[3] = test system: HL-60(TB) leukemia
[4] = test system: RXF 393 renal
[5] = test system: DU-145 prostate
[6] = test system: A549 NSCLC
[7] = test system: HS 578T breast
[8] = test system: U251 CNS
[9] = test system: LOX IMVI melanoma
[10] = test system: M14 melanoma

SMILES	GI50 [1]	TGI [1]	GI50 [2]	TGI [2]	GI50 [3]	TGI [3]	GI50 [4]	TGI [4]	GI50 [5]	TGI [5]	GI50 [6]	TGI [6]	GI50 [7]	TGI [7]	GI50 [8]	TGI [8]	GI50 [9]	TGI [9]	GI50 [10]	TGI [10]
CCOc1ccc2nc3cc(N)ccc3c(N)c2c1	3.43 µM and 4.22 µM	17.1 µM and 20.9 µM	3.11 µM and 11.6 µM	27.7 µM and 62.8 µM	19.8 µM and 20.2 µM	42.2 µM and 43.7 µM	4.97 µM and 2.38 µM	20.3 µM and 14.6 µM	5.65 µM and 6.17 µM	18.3 µM and 19 µM	9.61 µM and 10.9 µM	28.6 µM and 26.2 µM	1.29 µM and 1.03 µM	9.46 µM and 4.83 µM	0.534 µM and 0.476 µM	2.49 µM and 2.09 µM	4.53 µM and 2.95 µM	20 µM and 12.4 µM	8.31 µM and 10.7 µM	26.3 µM and 23.4 µM
CC(=O)Nc1ccc(CC[C@H]2CCC/C=C/[C@@H]3C[C@H](O)C[C@H]3[C@H](O)/C=C/C(=O)O2)cc1	0.32 µM	> 100 µM	0.316 µM	–	0.337 µM	3.95 µM	0.0359 µM	0.15 µM	0.366 µM	4.2 µM	0.309 µM	> 100 µM	0.0674 µM	> 93.7 µM	0.304 µM	> 100 µM	0.0912 µM	0.405 µM	0.153 µM	> 100 µM
COc1ccc2c(c1[N+](=O)[O-])CC[C@@H]1[C@@H]2CC[C@]2(C)C(=O)CC[C@@H]12	> 1000 µM	–	> 824 µM	> 1000 µM	> 1000 µM	–	432 µM	> 927 µM	> 939 µM	> 1000 µM	> 751 µM	> 1000 µM	119 µM	–	476 µM	> 1000 µM	434 µM	> 1000 µM	> 562 µM	> 562 µM
CCCCCCCCCCCC1=NC(C)(C)CN1C(C)C	2.7 µM	10.1 µM	2.75 µM	12.5 µM	2.14 µM	4.55 µM	2.17 µM	5.33 µM	5.46 µM	17.9 µM	3.71 µM	14.6 µM	2.81 µM	13.1 µM	3.4 µM	12.8 µM	2.32 µM	6.85 µM	1.89 µM	3.57 µM
Clc1ccc2c(NCCCCNc3nc(N4CCOCC4)nc4ccccc34)ccnc2c1	3.42 µM	9.38 µM	1.66 µM	3.12 µM	2.27 µM	4.3 µM	1.65 µM	3.73 µM	4.62 µM	16.5 µM	3.16 µM	11.3 µM	2.25 µM	7.66 µM	1.84 µM	3.66 µM	1.73 µM	3.25 µM	2 µM	3.91 µM
CCCCCCCCCCCC(c1ccccc1)[N+](C)(C)C (stereo unspecified)	1.41 µM	4.12 µM	10.7 µM	26.9 µM	0.291 µM	1.47 µM	0.451 µM	2.26 µM	1.56 µM	7.51 µM	1.46 µM	3.97 µM	1.16 µM	3.28 µM	1.14 µM	2.49 µM	0.425 µM	2.5 µM	1.37 µM	4.25 µM
CC(C)(C)CNCCO	–	> 100 µM	–	> 100 µM	–	> 100 µM	–	> 100 µM	–	> 100 µM	–	> 100 µM	–	> 100 µM	–	> 100 µM	–	> 100 µM	–	> 100 µM
O=C(Nc1ccccc1/C=C/c1n[nH]c2ccccc12)c1ccccc1	4.05 µM	22.3 µM	4.14 µM	19.3 µM	0.589 µM	16.2 µM	4.58 µM	17.3 µM	2.6 µM	8.23 µM	2.47 µM	13.6 µM	3.64 µM	17.7 µM	1.72 µM	3.75 µM	2.48 µM	11.4 µM	3.32 µM	15 µM
CC(C)CC(NC(=O)C(O)C(N)Cc1ccccc1)C(=O)O (stereo unspecified)	–	> 100 µM	–	> 100 µM	–	> 100 µM	–	> 100 µM	–	> 100 µM	–	> 100 µM	–	> 100 µM	–	> 100 µM	–	> 100 µM	–	> 100 µM
COc1ccc(-c2nn3ncccc3c2-c2ccnc(Nc3ccc(F)c(F)c3)n2)cc1	11.2 µM	> 25 µM	5.8 µM	> 20.9 µM	13.2 µM	> 25 µM	7.45 µM	> 25 µM	15.8 µM	> 25 µM	7.52 µM	> 25 µM	9.2 µM	> 25 µM	10.3 µM	> 25 µM	7.42 µM	> 25 µM	9.61 µM	> 25 µM
CC(C)Cn1cnc2c(N)nc3ccccc3c21	> 49 µM	> 100 µM	35.8 µM	> 100 µM	> 47.7 µM	> 100 µM	28.9 µM	97.2 µM	47.2 µM	> 100 µM	39.3 µM	> 100 µM	60.8 µM	> 100 µM	47.5 µM	> 100 µM	25.7 µM	> 100 µM	43.9 µM	> 100 µM
COCCn1c(Nc2ccc(C(=O)NO)cc2)nc2ccccc21	3.52 µM	> 100 µM	2.25 µM	17.1 µM	3.63 µM	> 100 µM	0.846 µM	3.91 µM	2.91 µM	14.7 µM	4.9 µM	23 µM	3.43 µM	34.3 µM	3.99 µM	18.6 µM	5.9 µM	19 µM	3.49 µM	14.9 µM
C=CCn1c(SCC(=O)Nc2ccc(C(=O)/C=C/c3cc(OC)c(OC)c(OC)c3)cc2)nnc1-c1cc(OC)c(OC)c(OC)c1	3.33 µM	> 100 µM	4.18 µM	17.5 µM	2.88 µM	33 µM	2.16 µM	4.65 µM	6.09 µM	> 100 µM	6.46 µM	36.5 µM	4.66 µM	> 100 µM	2.15 µM	5.38 µM	2.3 µM	6.53 µM	2.96 µM	11.8 µM
